Measured values as given in ChEMBL document CHEMBL3046716, “Design of potent human steroid 5-reductase inhibitors: 3D-QSAR CoMFA, CoMSIA and docking studies” (Med Chem Res, 2013).
One block for each compound: values may come before it.

Key:
[1] = organism: Homo sapiens; assay: Ratio of compound pIC50 to (4aR,4bS,6aS,7S,9aS,9bS,11aR)-N,N-diethyl-1,4a,6a-trimethyl-2-oxohexadecahydro-1H-indeno[5,4-f]quinoline-7-carboxamide pIC50 for human steroid 5alpha-reductase
[2] = organism: Homo sapiens; assay: Ratio of compound IC50 to (4aR,4bS,6aS,7S,9aS,9bS,11aR)-N,N-diethyl-1,4a,6a-trimethyl-2-oxohexadecahydro-1H-indeno[5,4-f]quinoline-7-carboxamide IC50 for human steroid 5alpha-reductase

SMILES: C[C@]12CCC(=O)N[C@@H]1CC[C@@H]1[C@@H]2CC[C@@]2(C)[C@H]1CC[C@@]21CCCO1
pIC50 [1]: 5.13
Ratio IC50 [2]: 735

SMILES: CCN(CC)C(=O)[C@H]1CC[C@H]2[C@@H]3CC[C@H]4N(C)C(=O)[C@@H]5C[C@@H]5[C@]4(C)[C@H]3CC[C@]12C
pIC50 [1]: 7.89
Ratio IC50 [2]: 1.3

SMILES: CCN(CC)C(=O)[C@H]1CC[C@H]2[C@@H]3CC[C@H]4N(C)C(=O)[C@@H](F)C[C@]4(C)[C@H]3CC[C@]12C
pIC50 [1]: 7.3
Ratio IC50 [2]: 5

SMILES: CN1C(=O)CC[C@]2(C)[C@H]3CC[C@]4(C)[C@@H](C5=NCCO5)CC[C@H]4[C@@H]3CC[C@@H]12
pIC50 [1]: 6.96
Ratio IC50 [2]: 11

SMILES: CC(C)(C)CC(C)(C)NC(=O)[C@H]1CC[C@H]2[C@@H]3CC[C@H]4NC(=O)CC[C@]4(C)[C@H]3CC[C@]12C
pIC50 [1]: 8.25
Ratio IC50 [2]: 0.56

SMILES: CN1C(=O)CC[C@]2(C)[C@H]3CC[C@]4(C)[C@@H](C(=O)N5CCOCC5)CC[C@H]4[C@@H]3CC[C@@H]12
pIC50 [1]: 7.25
Ratio IC50 [2]: 5.6

SMILES: CCN(CC)C(=O)/C=C1/CC[C@H]2[C@@H]3CC[C@H]4N(C)C(=O)CC[C@]4(C)[C@H]3CC[C@]12C
pIC50 [1]: 7.82
Ratio IC50 [2]: 1.5

SMILES: C[C@]12CCC(=O)N[C@@H]1CC[C@@H]1[C@@H]2CC[C@]2(C)[C@@H](C(N)=O)CC[C@@H]12
pIC50 [1]: 5.82
Ratio IC50 [2]: 150

SMILES: CCN(CC)C(=O)[C@H]1CC[C@H]2[C@@H]3CC[C@H]4N(C)C(=O)C[C@H](C)[C@]4(C)[C@H]3CC[C@]12C
pIC50 [1]: 7.16
Ratio IC50 [2]: 7

SMILES: CC(C)(C)NC(=O)[C@H]1CC[C@H]2[C@@H]3CC[C@H]4NC(=O)CC[C@]4(C)[C@H]3CC[C@]12C
pIC50 [1]: 7.77
Ratio IC50 [2]: 1.7

SMILES: CCN(CC)C(=O)[C@H]1CC[C@H]2[C@@H]3CC[C@H]4N(C)C(=O)[C@@H]5O[C@@H]5[C@]4(C)[C@H]3CC[C@]12C
pIC50 [1]: 6.2
Ratio IC50 [2]: 63

SMILES: CCCCCCCNC(=O)[C@H]1CC[C@H]2[C@@H]3CC[C@H]4NC(=O)CC[C@]4(C)[C@H]3CC[C@]12C
pIC50 [1]: 7.62
Ratio IC50 [2]: 2.4

SMILES: CCN(CC)C(=O)[C@H]1CC[C@H]2[C@@H]3CC[C@H]4NC(=O)CC[C@]4(C)[C@H]3CC[C@]12C
pIC50 [1]: 7.92
Ratio IC50 [2]: 1.2

SMILES: CCN(CC)C(=O)[C@H]1CC[C@H]2[C@@H]3CC[C@H]4N(C)C(=O)[C@@H](OC)C[C@]4(C)[C@H]3CC[C@]12C
pIC50 [1]: 6.82
Ratio IC50 [2]: 15

SMILES: CC(C)N(C(=O)[C@H]1CC[C@H]2[C@@H]3CC[C@H]4NC(=O)CC[C@]4(C)[C@H]3CC[C@]12C)C(C)C
pIC50 [1]: 7.82
Ratio IC50 [2]: 1.5

SMILES: CCCCCCCNC(=O)[C@H]1CC[C@H]2[C@@H]3CC[C@H]4N(C)C(=O)CC[C@]4(C)[C@H]3CC[C@]12C
pIC50 [1]: 7.4
Ratio IC50 [2]: 4

SMILES: CN1C(=O)CC[C@]2(C)[C@H]3CC[C@@]4(C)[C@@H](CC[C@@]45CCCO5)[C@@H]3CC[C@@H]12
pIC50 [1]: 5.84
Ratio IC50 [2]: 144

SMILES: CC(C)CC(=O)[C@H]1CC[C@H]2[C@@H]3CC[C@H]4NC(=O)CC[C@]4(C)[C@H]3CC[C@]12C
pIC50 [1]: 7.38
Ratio IC50 [2]: 4.2

SMILES: COC(CNC(=O)[C@H]1CC[C@H]2[C@@H]3CC[C@H]4NC(=O)CC[C@]4(C)[C@H]3CC[C@]12C)OC
pIC50 [1]: 6.7
Ratio IC50 [2]: 20

SMILES: CC(C)(C)OC(=O)[C@H]1CC[C@H]2[C@@H]3CC[C@H]4NC(=O)CC[C@]4(C)[C@H]3CC[C@]12C
pIC50 [1]: 7.07
Ratio IC50 [2]: 8.6

SMILES: CCC(C)C(=O)[C@H]1CC[C@H]2[C@@H]3CC[C@H]4NC(=O)CC[C@]4(C)[C@H]3CC[C@]12C (stereo not given in full)
pIC50 [1]: 7.4
Ratio IC50 [2]: 4

SMILES: COC(=O)[C@H]1CC[C@H]2[C@@H]3CC[C@H]4NC(=O)CC[C@]4(C)[C@H]3CC[C@]12C
pIC50 [1]: 6.38
Ratio IC50 [2]: 42

SMILES: CCN(CC)C(=O)[C@H]1CC[C@H]2[C@@H]3CC[C@H]4N(C)C(=O)C(OC)(OC)C[C@]4(C)[C@H]3CC[C@]12C
pIC50 [1]: 6.55
Ratio IC50 [2]: 28

SMILES: CCN(CC)C(=O)[C@H]1CC[C@H]2[C@@H]3CC[C@H]4N(C)C(=O)[C@@H](C)C[C@]4(C)[C@H]3CC[C@]12C
pIC50 [1]: 7.44
Ratio IC50 [2]: 3.6

SMILES: CN1C(=O)CC[C@]2(C)[C@H]3CC[C@]4(C)[C@@H](C5=NC(C)(C)CO5)CC[C@H]4[C@@H]3CC[C@@H]12
pIC50 [1]: 5.9
Ratio IC50 [2]: 125

SMILES: C[C@]12CCC(=O)N[C@@H]1CC[C@@H]1[C@@H]2CC[C@]2(C)[C@@H](C(=O)c3ccco3)CC[C@@H]12
pIC50 [1]: 7.44
Ratio IC50 [2]: 3.6

The remaining lines, values ahead:

pIC50 [1]: 6.08
Ratio IC50 [2]: 83
SMILES: CN1C(=O)CC[C@]2(C)[C@H]3CC[C@]4(C)[C@@H](C#N)CC[C@H]4[C@@H]3CC[C@@H]12

pIC50 [1]: 7.4
Ratio IC50 [2]: 4
SMILES: CC(C)NC(=O)[C@H]1CC[C@H]2[C@@H]3CC[C@H]4N(C)C(=O)CC[C@]4(C)[C@H]3CC[C@]12C

pIC50 [1]: 8.09
Ratio IC50 [2]: 0.82
SMILES: CC(C)N(C(=O)[C@H]1CC[C@H]2[C@@H]3CC[C@H]4N(C)C(=O)CC[C@]4(C)[C@H]3CC[C@]12C)C(C)C

pIC50 [1]: 7.7
Ratio IC50 [2]: 2
SMILES: CCN(CC)C(=O)C[C@H]1CC[C@H]2[C@@H]3CC[C@H]4N(C)C(=O)CC[C@]4(C)[C@H]3CC[C@]12C

pIC50 [1]: 6.33
Ratio IC50 [2]: 47
SMILES: CN1C(=O)CC[C@]2(C)[C@H]3CC[C@]4(C)[C@@H](C(=O)SC(C)(C)C)CC[C@H]4[C@@H]3CC[C@@H]12

pIC50 [1]: 5.84
Ratio IC50 [2]: 143
SMILES: COC(=O)[C@H](C)[C@H]1CC[C@H]2[C@@H]3CC[C@H]4N(C)C(=O)CC[C@]4(C)[C@H]3CC[C@]12C

pIC50 [1]: 5.41
Ratio IC50 [2]: 390
SMILES: CCN(CC)C(=O)[C@@H](C)[C@H]1CC[C@H]2[C@@H]3CC[C@H]4N(C)C(=O)CC[C@]4(C)[C@H]3CC[C@]12C

pIC50 [1]: 7.03
Ratio IC50 [2]: 9.4
SMILES: CCNC(=O)[C@H]1CC[C@H]2[C@@H]3CC[C@H]4N(C)C(=O)CC[C@]4(C)[C@H]3CC[C@]12C

pIC50 [1]: 6.82
Ratio IC50 [2]: 15
SMILES: C[C@H](CO)[C@H]1CC[C@H]2[C@@H]3CC[C@H]4N(C)C(=O)CC[C@]4(C)[C@H]3CC[C@]12C

pIC50 [1]: 7.7
Ratio IC50 [2]: 2
SMILES: CN1C(=O)CC[C@]2(C)[C@H]3CC[C@]4(C)[C@@H](C(=O)c5ccco5)CC[C@H]4[C@@H]3CC[C@@H]12

pIC50 [1]: 8.28
Ratio IC50 [2]: 0.52
SMILES: CN1C(=O)CC[C@]2(C)[C@H]3CC[C@]4(C)[C@@H](C(=O)NC(C)(C)CC(C)(C)C)CC[C@H]4[C@@H]3CC[C@@H]12

pIC50 [1]: 6.54
Ratio IC50 [2]: 29
SMILES: CCOC(=O)C[C@H]1CC[C@H]2[C@@H]3CC[C@H]4N(C)C(=O)CC[C@]4(C)[C@H]3CC[C@]12C

pIC50 [1]: 6.77
Ratio IC50 [2]: 17
SMILES: COC(=O)[C@H]1CC[C@H]2[C@@H]3CC[C@H]4N(C)C(=O)CC[C@]4(C)[C@H]3CC[C@]12C

pIC50 [1]: 7.62
Ratio IC50 [2]: 2.4
SMILES: CCCCCNC(=O)[C@H]1CC[C@H]2[C@@H]3CC[C@H]4N(C)C(=O)CC[C@]4(C)[C@H]3CC[C@]12C

pIC50 [1]: 6.55
Ratio IC50 [2]: 28
SMILES: CNC(=O)[C@H]1CC[C@H]2[C@@H]3CC[C@H]4N(C)C(=O)CC[C@]4(C)[C@H]3CC[C@]12C

pIC50 [1]: 6.57
Ratio IC50 [2]: 27
SMILES: CCN(CC)C(=O)CC[C@@H](C)[C@H]1CC[C@H]2[C@@H]3CC[C@H]4N(C)C(=O)CC[C@]4(C)[C@H]3CC[C@]12C

pIC50 [1]: 8
Ratio IC50 [2]: 1
SMILES: CCN(CC)C(=O)[C@H]1CC[C@H]2[C@@H]3CC[C@H]4N(C)C(=O)CC[C@]4(C)[C@H]3CC[C@]12C

pIC50 [1]: 7.96
Ratio IC50 [2]: 1.1
SMILES: CN1C(=O)CC[C@]2(C)[C@H]3CC[C@]4(C)[C@@H](C(=O)NC(C)(C)C)CC[C@H]4[C@@H]3CC[C@@H]12

pIC50 [1]: 7.52
Ratio IC50 [2]: 3
SMILES: CCN(CCO)C(=O)[C@H]1CC[C@H]2[C@@H]3CC[C@H]4N(C)C(=O)CC[C@]4(C)[C@H]3CC[C@]12C

pIC50 [1]: 7.7
Ratio IC50 [2]: 2
SMILES: CN1C(=O)CC[C@]2(C)[C@H]3CC[C@]4(C)[C@@H](C(=O)NC(C)(C)CO)CC[C@H]4[C@@H]3CC[C@@H]12

pIC50 [1]: 6.77
Ratio IC50 [2]: 17
SMILES: CC(O)[C@H]1CC[C@H]2[C@@H]3CC[C@H]4N(C)C(=O)CC[C@]4(C)[C@H]3CC[C@]12C (stereo not given in full)

pIC50 [1]: 7.57
Ratio IC50 [2]: 2.7
SMILES: CC(C)CC(=O)[C@H]1CC[C@H]2[C@@H]3CC[C@H]4N(C)C(=O)CC[C@]4(C)[C@H]3CC[C@]12C

pIC50 [1]: 6.96
Ratio IC50 [2]: 11
SMILES: CCN(CC)C(=O)CNC(=O)[C@H]1CC[C@H]2[C@@H]3CC[C@H]4N(C)C(=O)CC[C@]4(C)[C@H]3CC[C@]12C

pIC50 [1]: 6.57
Ratio IC50 [2]: 27
SMILES: CC(=O)[C@H]1CC[C@H]2[C@@H]3CC[C@H]4N(C)C(=O)CC[C@]4(C)[C@H]3CC[C@]12C
